A value given as a limit tells only on which side of the number the result lay.

This experiment concerns HEK293-STF3A cells. Description: STF3A assay (luciferase reporter). The format is cell-based. The following applies: Homo sapiens, 24 h, 1 day of treatment. As to the method:
HEK293-STF cell line was modified from Human embryonic kidney cell line HEK293 transfected with the STF reporter. HEK293-STF3A cell line was further modified from HEK293-STF cell line to express Wnt3A. This cell line was used to identify compounds that regulate either early or late signalling components of the Wnt pathway. L-Wnt3A (ATCC, #CRL-2647) cell line was used for providing Wnt3A conditioned media. The three cell lines were grown in DMEM (Dulbecco's Modified Eagle Medium) with 10% FBS (fetal bovine serum) incubated in 37° C. with 5% CO2. 2×10^4 HEK293-STF3A cells in 75 μl culture media were seeded in each well of white 96 well plates (Greiner #655098) and incubated overnight at 37° C. 25 μl serially diluted compound was added to the cells to give final concentration of 50 μM to 1.5 nM. After 1 day of treatment, 100 μl of Steady-Glo® Luciferase Assay reagent (#E2520, Promega) was added to each well and incubated for 10 minutes at room temperature. Luminescence was measured using Tecan Safire2® plate reader.
(In general: In a reporter assay the amount or activity of a reporter protein is the signal.)
As usually defined, the IC50 is the point on the concentration scale where inhibition reaches its midpoint. A high value points to a need for much substance. As for `Cc1nc2c(c(=O)n(C)c(=O)n2C)n1[C@@H](C)C(=O)Nc1ccc(-c2nccs2)cc1` [Compound 67, (S)—N-(4-(thiazol-2-yl)phenyl)-2-(1,3,8-trimethyl-2,6-dioxo-2,3-dihydro-1H-purin-7(6H)-yl)propanamide], the IC50 was < 1000 nM.

Take `Cn1c(=O)c2c(nc(C3CC3)n2CC(=O)Nc2ccc(-c3ccsc3)cc2)n(C)c1=O` [Compound 68, 2-(8-cyclopropyl-1,3-dimethyl-2,6-dioxo-2,3-dihydro-1H-purin-7(6H)-yl)-N-(4-(thiophen-3-yl)phenyl)acetamide]: the IC50 was < 100 nM.

Regarding `Cn1c(=O)c2c(nc(-c3ccccc3)n2CC(=O)Nc2ccc(-c3ccsc3)cc2)n(C)c1=O` [Compound 69, 2-(1,3-dimethyl-2,6-dioxo-8-phenyl-2,3-dihydro-1H-purin-7(6H)-yl)-N-(4-(thiophen-3-yl)phenyl)acetamide], the IC50 is < 100 nM.

Take `Cn1c(=O)c2c(nc(C(F)(F)F)n2CC(=O)Nc2ccc(-c3ccsc3)cc2)n(C)c1=O` [Compound 70, 2-(1,3-dimethyl-2,6-dioxo-8-(trifluoromethyl)-2,3-dihydro-1H-purin-7(6H)-yl)-N-(4-(thiophen-3-yl)phenyl)acetamide]: the IC50 was < 100 nM.

As to `O=C(Cn1cnc2[nH]c(=O)[nH]c(=O)c21)Nc1ccc(-c2ccsc2)cc1` [Compound 71, 2-(2,6-dioxo-2,3-dihydro-1H-purin-7(6H)-yl)-N-(4-(thiophen-3-yl)phenyl) acetamide], the IC50 was > 10000 nM.

For the compound `CCn1c(=O)c2c(ncn2CC(=O)Nc2ccc(-c3ccsc3)cc2)n(CC)c1=O` [Compound 72, 2-(1,3-diethyl-2,6-dioxo-2,3-dihydro-1H-purin-7(6H)-yl)-N-(4-(thiophen-3-yl)phenyl)acetamide], the IC50 is < 100 nM.

As to `CN(C)c1nc2c(c(=O)n(C)c(=O)n2C)n1CC(=O)Nc1ccc(-c2ccsc2)cc1` [Compound 73, 2-(8-(dimethylamino)-1,3-dimethyl-2,6-dioxo-2,3-dihydro-1H-purin-7(6H)-yl)-N-(4-(thiophen-3-yl)phenyl)acetamide], the concentration for half-maximal inhibition (IC50) was < 100 nM.

As to `Cn1c(=O)c2c(nc(N3CCOCC3)n2CC(=O)Nc2ccc(-c3ccsc3)cc2)n(C)c1=O` [Compound 74, 2-(1,3-dimethyl-8-morpholino-2,6-dioxo-2,3-dihydro-1H-purin-7(6H)-yl)-N-(4-(thiophen-3-yl)phenyl)acetamide], the IC50 is < 1000 nM.

For `Cn1c(=O)c2c(nc(-c3cccs3)n2CC(=O)Nc2ccc(-c3ccsc3)cc2)n(C)c1=O` [Compound 75, 2-(1,3-dimethyl-2,6-dioxo-8-(thiophen-2-yl)-2,3-dihydro-1H-purin-7(6H)-yl)-N-(4-(thiophen-3-yl)phenyl)acetamide], the IC50 was < 1000 nM.

As to `Cn1c(=O)c2c(nc(Br)n2CC(=O)Nc2ccc(-c3ccsc3)cc2)n(C)c1=O` [Compound 76, 2-(8-bromo-1,3-dimethyl-2,6-dioxo-2,3-dihydro-1H-purin-7(6H)-yl)-N-(4-(thiophen-3-yl)phenyl)acetamide], the IC50 was < 100 nM.

As for `CC(C(=O)Nc1ccc(-c2ccccc2)nn1)n1cnc2c1c(=O)n(C)c(=O)n2C` (stereo not drawn) [Compound 77, 2-(1,3-dimethyl-2,6-dioxo-2,3-dihydro-1H-purin-7(6H)-yl)-N-(6-phenylpyridazin-3-yl)propanamide], the IC50 was < 100 nM.

As for `CC(C(=O)Nc1ccc(-c2ccc(F)cc2)nn1)n1cnc2c1c(=O)n(C)c(=O)n2C` (stereo not drawn) [Compound 78, 2-(1,3-dimethyl-2,6-dioxo-2,3-dihydro-1H-purin-7(6H)-yl)-N-(6-(4-fluorophenyl)pyridazin-3-yl)propanamide], the IC50 was < 1000 nM.

As to `C[C@@H](C(=O)Nc1ccc(-c2ccccc2)nn1)n1cnc2c1c(=O)n(C)c(=O)n2C` [Compound 79, (S)-2-(1,3-dimethyl-2,6-dioxo-2,3-dihydro-1H-purin-7(6H)-yl)-N-(6-phenylpyridazin-3-yl)propanamide], the IC50 is < 100 nM.

Consider `C[C@H](C(=O)Nc1ccc(-c2ccccc2)nn1)n1cnc2c1c(=O)n(C)c(=O)n2C` [Compound 80, (R)-2-(1,3-dimethyl-2,6-dioxo-2,3-dihydro-1H-purin-7(6H)-yl)-N-(6-phenylpyridazin-3-yl)propanamide], for which the IC50 is > 10000 nM.

Turning to `CC(C(=O)Nc1ccc(-c2nccs2)cc1)n1cnc2c1c(=O)n(C)c(=O)n2C` (stereo not drawn) [Compound 81, 2-(1,3-dimethyl-2,6-dioxo-2,3-dihydro-1H-purin-7(6H)-yl)-N-(4-(thiazol-2-yl)phenyl)propanamide], the IC50 was < 100 nM.

On to `C[C@H](C(=O)Nc1ccc(-c2nccs2)cn1)n1cnc2c1c(=O)n(C)c(=O)n2C` [Compound 83, (R)-2-(1,3-dimethyl-2,6-dioxo-1,2,3,6-tetrahydro-7H-purin-7-yl)-N-(5-(thiazol-2-yl)pyridin-2-yl)propanamide], for which the IC50 was < 10000 nM.

For `C[C@@H](C(=O)Nc1ccc(-c2nccs2)cn1)n1cnc2c1c(=O)n(C)c(=O)n2C` [Compound 84, (S)-2-(1,3-dimethyl-2,6-dioxo-1,2,3,6-tetrahydro-7H-purin-7-yl)-N-(5-(thiazol-2-yl)pyridin-2-yl)propanamide], the IC50 was < 100 nM.

Regarding `Cc1nc(-c2ccc(NC(=O)[C@@H](C)n3cnc4c3c(=O)n(C)c(=O)n4C)nc2)cs1` [Compound 85, (R)-2-(1,3-dimethyl-2,6-dioxo-2,3-dihydro-1H-purin-7(6H)-yl)-N-(5-(2-methylthiazol-4-yl)pyridin-2-yl)propanamide], the IC50 was < 5000 nM.

Turning to `Cc1nc(-c2ccc(NC(=O)[C@H](C)n3cnc4c3c(=O)n(C)c(=O)n4C)nc2)cs1` [Compound 86, (S)-2-(1,3-dimethyl-2,6-dioxo-2,3-dihydro-1H-purin-7(6H)-yl)-N-(5-(2-methylthiazol-4-yl)pyridin-2-yl)propanamide], the IC50 was < 100 nM.

In the case of `Cn1c(=O)c2c(ncn2CCC(=O)Nc2ccc(-c3ccsc3)cc2)n(C)c1=O` [Compound 87, 3-(1,3-dimethyl-2,6-dioxo-1,2,3,6-tetrahydro-7H-purin-7-yl)-N-(4-(thiophen-3-yl)phenyl)propanamide], the IC50 was < 100 nM.

Turning to `Cn1c(=O)c2c(ncn2CCCC(=O)Nc2ccc(-c3ccsc3)cc2)n(C)c1=O` [Compound 88, 4-(1,3-dimethyl-2,6-dioxo-1,2,3,6-tetrahydro-7H-purin-7-yl)-N-(4-(thiophen-3-yl)phenyl)butanamide], the IC50 is < 100 nM.

`Cn1c(=O)c2c(ncn2CC(=O)Nc2ccc(-c3cccs3)cc2)n(C)c1=O` [Compound 89, 2-(1,3-dimethyl-2,6-dioxo-1,2,3,6-tetrahydro-7H-purin-7-yl)-N-(4-(thiophen-2-yl)phenyl)acetamide]: the IC50 was < 100 nM.

Regarding `Cn1c(=O)c2c(ncn2CCC(=O)Nc2ccc(-c3cccs3)cc2)n(C)c1=O` [Compound 90, 3-(1,3-dimethyl-2,6-dioxo-1,2,3,6-tetrahydro-7H-purin-7-yl)-N-(4-(thiophen-2-yl)phenyl)propanamide], the IC50 is < 100 nM.

Turning to `Cn1c(=O)c2c(ncn2CCCC(=O)Nc2ccc(-c3cccs3)cc2)n(C)c1=O` [Compound 91, 4-(1,3-dimethyl-2,6-dioxo-1,2,3,6-tetrahydro-7H-purin-7-yl)-N-(4-(thiophen-2-yl)phenyl)butanamide], the IC50 is < 100 nM.

With `Cc1nc(-c2ccc(NC(=O)CCn3cnc4c3c(=O)n(C)c(=O)n4C)cc2)cs1` [Compound 92, 3-(1,3-dimethyl-2,6-dioxo-1,2,3,6-tetrahydro-7H-purin-7-yl)-N-(4-(2-methylthiazol-4-yl)phenyl)propanamide], the IC50 was < 1000 nM.

With `Cn1c(=O)c2c(ncn2CCC(=O)Nc2ccc(-c3nccs3)cc2)n(C)c1=O` [Compound 93, 3-(1,3-dimethyl-2,6-dioxo-1,2,3,6-tetrahydro-7H-purin-7-yl)-N-(4-(thiazol-2-yl)phenyl)propanamide], the IC50 is < 1000 nM.

As to `Cn1c(=O)c2c(ncn2CCCC(=O)Nc2ccc(-c3nccs3)cc2)n(C)c1=O` [Compound 94, 4-(1,3-dimethyl-2,6-dioxo-1,2,3,6-tetrahydro-7H-purin-7-yl)-N-(4-(thiazol-2-yl)phenyl)butanamide], the IC50 was < 1000 nM.

These data come from patent US12559495B2 (Agency for Science, Technology and Research, priority 2013, dated 2026).
